Laboratory results taken from patent US20240350464A1, “METHODS OF TREATING NEUROLOGICAL, MUSCULAR, AND PROLIFERATIVE DISORDERS” (Elixira Pharma AG, priority 2023, published 2024).

What was measured:
Format in all cases: in vivo, Caenorhabditis elegans
N2 wild type worms [1] = assay: Microfluidic reproduction monitoring (egg laying start/end, reproductive span, eggs laid); settings: for Eggs laid (#): average number of eggs laid per worm within the timespan of egg laying; for Eggs laid (#) / Egg laying end / Reproductive span: concentrations per Table 2; for Egg laying start: time from injection of L4 larvae until first egg, continuous exposure, concentrations per Table 2 (Cpd 1 100 μM, Cpd 2 25 mM); for Egg laying start / Egg laying end / Reproductive span: mean; for Egg laying end: time from injection of L4 larvae until last egg; for Reproductive span: timespan of egg laying; for Variation (%) of egg laying end (time of the last egg laid) / Variation (%) of egg laying start / Variation (%) of eggs laid / Variation (%) of reproductive span (timespan of egg laying): vs negative control DMSO 1%
Experimental: (§1) For the purpose of this study, the two compounds and four combinations of the two compounds were tested on a microfluidic platform. Worms were injected at the L4 larval stage, confined in dedicated microfluidic chambers, and continuously subjected to the presence of the two compounds, alone or in combination, from the L4 larval stage to the end of the experiment (corresponding to the day when the worm is dead). Acquisition of short sequences of videos for each microfluidic chamber containing worms were executed automatically every six (6) hours during the duration of the assay. The measurement of the motility, as well as the worm size to address compound toxicity (1) and the reproduction assessing longevity (2), were performed on the acquired sequences of videos by using an algorithm (3,4). Dead/live worms were identified automatically, based on the motility parameters. Each condition was tested in four technical replicates on different microfluidic cartridges. The experiment was performed once.
(§2) The proposed study was conducted according to the design and timeline depicted in FIG. 1. N2 wild-type C. elegans were grown on solid nematode growth medium (NGM) agar plates until the adult stage and harvested in complete S-Medium. Eggs from the adult population were hatched overnight in S-Medium and the resulting L1 progeny was recovered with a dedicated filter. L1 larvae were then collected through filtering in S-medium, seeded on NGM agar plates and grown for 48 hours (h) at 20° C. […] L4 larvae were then collected through filtering in 5 mL S-medium. 20 to 30 L4 were injected in the microfluidic chips for each condition. Worms were then continuously fed on-chip via bacterial medium, for the duration of the entire experiment. Videos of each micro-chamber were acquired after the feeding during the whole experiment, every 6 hours.
(§3) The two compounds, Compound 1 and Compound 2, were suspended in DMSO at the stock concentration of 100 mM and 2.5 M, respectively (Table 1). Compounds were then mixed with the bacterial medium at the targeted concentrations, alone or in combination (Table 2). For all tested conditions, the final vehicle (DMSO) concentration was 1%. For the negative control condition, nematodes were fed with a bacterial medium containing only the vehicle solution (DMSO 1%). All stock solutions were stored at −20° C. and dilutions were made freshly on the day of starting the on-chip experiment and then every 72 h to replace the compound/bacterial medium solutions.
Five time-resolved phenotypic readouts were extracted during the assays, including: • Worm size (area): this parameter was measured to evaluate the potential effects of the tested compound on growth retardation or larval arrest phenotype (7). • Sexual maturity: this parameter was measured to evaluate the potential effects of the tested compound on the timing required by a worm to reach the sexual maturity, determined by the observation of the first embryo (i.e., egg) produced in each microfluidic chamber.
Bar graphs represent mean+/−sem. p values were obtained by comparing the negative control (blue bars) versus the treatment via One-way ANOVA followed by Bonferroni's multiple comparisons test (p<0.05). * statistics versus the negative control (DMSO 1%).

N2 wild type worms [2] = assay: Microfluidic motility monitoring (head, midbody, tail amplitude, bending frequency, velocity); settings: vs negative control; for overall motility: all motility parameters improved, in average: all 5 parameters
Experimental: as §1, §2, §3
Worm motility is an additional phenotypic readout, where five parameters of the motility were assessed every 6 hours from acquired videos (2 seconds long, 10 frames per second for each video). At each time point, the values recorded for dead worms were excluded. The five motility parameters monitored included (3): • the amplitude of the movement at the head • the amplitude of the movement at the middle of the worm body • the amplitude of tail movement • the worm bending frequency • the worm velocity
These motility parameters were analyzed by phases (Area Under the Curve calculation following by an 2-way ANOVA tests), as defined below: • Phase 1: from day 1 to day 5 • Phase 2: from day 6 to day 10 • Phase 3: from day 11 to day 15 • Phase 4: from day 16 to day 20

N2 wild type worms [3] = assay: Microfluidic growth monitoring (worm size, area); settings: for effect on the worm's size (in words): vs negative control; for Variation (%) of worm area AUC: vs negative control DMSO 1%
Experimental: as §1
The proposed study was conducted according to the design and timeline depicted in FIG. 1. N2 wild-type C. elegans were grown on solid nematode growth medium (NGM) agar plates until the adult stage and harvested in complete S-Medium. Eggs from the adult population were hatched overnight in S-Medium and the resulting L1 progeny was recovered with a dedicated filter. L1 larvae were then collected through filtering in S-medium, seeded on NGM agar plates and grown for 48 hours (h) at 20° C. After 48 h, the worm population had reached the L4 larval stage. […]
Five time-resolved phenotypic readouts were extracted during the assays, including: • Worm size (area): this parameter was measured to evaluate the potential effects of the tested compound on growth retardation or larval arrest phenotype (7). • Sexual maturity: this parameter was measured to evaluate the potential effects of the tested compound on the timing required by a worm to reach the sexual maturity, determined by the observation of the first embryo (i.e., egg) produced in each microfluidic chamber. This phenotype was also indicative for a general sterility phenotype (i.e., no egg produced) (7). • Worm fertility: this parameter was measured to evaluate the potential effects of the tested compound on the average number of eggs produced by each worm during the reproductive span, calculated via the images acquired during the assay (7). • Reproductive span: this parameter was measured to evaluate the potential effects of the tested compound on the duration in which the worms have reproductive ability, determined by the observation of the last embryo produced in each microfluidic chamber. • Worm longevity: this parameter was measured to evaluate the potential effects of the tested compound on the worm's survival. […]

| SMILES | Eggs laid (#) (N2 wild type worms [1]) | Egg laying start (N2 wild type worms [1]) [h] | Egg laying end (N2 wild type worms [1]) [h] | Reproductive span (N2 wild type worms [1]) [h] | Variation (%) of egg laying end (time of the last egg laid) (N2 wild type worms [1]) | Variation (%) of egg laying start (N2 wild type worms [1]) [%] | Variation (%) of eggs laid (N2 wild type worms [1]) [%] | Variation (%) of reproductive span (timespan of egg laying) (N2 wild type worms [1]) | overall motility: all motility parameters improved, in average (N2 wild type worms [2]) [%] | effect on the worm's size (in words) (N2 wild type worms [3]) | Variation (%) of worm area AUC (N2 wild type worms [3]) | motility in Phase 1 (in words) (N2 wild type worms [2]; Phase 1 (D0 to D5)) | motility in Phase 2 (in words) (N2 wild type worms [2]; Phase 2 (D6 to D10)) | motility in Phase 3 (in words) (N2 wild type worms [2]; Phase 3 (D11 to D15)) | motility in Phase 4 (in words) (N2 wild type worms [2]; Phase 4 (D16 to D20)) | overall motility of the worms (in words) (N2 wild type worms [2]; 2-way ANOVA) |
| --- | --- | --- | --- | --- | --- | --- | --- | --- | --- | --- | --- | --- | --- | --- | --- | --- |
| CO[C@H]1C[C@@H]2CC[C@@H](C)[C@@](O)(O2)C(=O)C(=O)N2CCCC[C@H]2C(=O)O[C@H]([C@H](C)C[C@@H]2CC[C@@H](O)[C@H](OC)C2)CC(=O)[C@H](C)/C=C(\C)[C@@H](O)[C@@H](OC)C(=O)[C@H](C)C[C@H](C)/C=C/C=C/C=C/1C [Cpd 1, rapamycin] | 96.6 # | 29.59 | 144.0 | 114.4 | −3.1% | −3.2 | −32.9 | −3.1% | 14 | significant improvement | +0.8% | – | – | – | – | – |
| CN(C)C(=N)N=C(N)N [Cpd 2, metformin] | 94.9 # | 29.63 | 152.7 | 123.1 | +2.8% | −3.1 | −34.1 | +4.3% | 22 | significant decrease | −3.3% | significant increase in almost all the motility parameters | significant increase in almost all the motility parameters | No effect on the motility | No effect on the motility | significantly increased |
